This is an account of results in patent USRE47302E1 (ONYX THERAPEUTICS INC., priority 2013, dated 2019).

Molecules are shown by their SMILES. In brackets after ≈: the same amount, converted by molar mass. Where two headings read alike, the source gives them in different places.

One series can be described thus: Solubility pH 7. The conditions noted are these: for solubility: pH 7, aqueous buffer.
Series [1] addresses T1, proteasome subunit β5 (beta5) (Homo sapiens, UniProt P28074).
T1 construct: Lysate from the human acute lymphoblastic leukemia cell line, MOLT-4; endogenous in cells; host or cells: MOLT-4
As to the kind of experiment: Proteasome active-site ELISA (ProCISE), beta5, MOLT-4 lysate. It counts as biochemical. The procedure: (§1) Test compounds were serially diluted in DMSO at 100× concentration, then diluted to 10× in aqueous hypotonic lysis buffer. Lysate from the human acute lymphoblastic leukemia cell line, MOLT-4, was treated for 1 hour at 25° C. with compound at a final 1× concentration. […] Following, lysate was denatured in guanidine hydrochloride, and subunits bound to probe were isolated with streptavidin-conjugated sepharose beads. Individual subunits (e.g., β5, LMP7, LMP2, MECL-1) were probed with subunit-specific primary antibodies, followed by HRP-conjugated secondary antibodies. A chemiluminescent substrate was used to generate signal associated with HRP binding, which was detected on a plate reader. Luminescent signal was normalized to protein content, then, percent activity calculated relative to DMSO-treated controls to generate IC50 curves.

Series [2] addresses T2, immunoproteasome subunit LMP7 (Homo sapiens, UniProt P28062).
T2 construct: Lysate from the human acute lymphoblastic leukemia cell line, MOLT-4; endogenous in cells; host or cells: MOLT-4
As to the kind of experiment: Proteasome active-site ELISA (ProCISE), LMP7, MOLT-4 lysate. The class given is biochemical. As for the experimental part:
as §1

Where [3] appears, read: MOLT4 lysate, human, 1 h continuous treatment, 25° C.
[4] abbreviates: MOLT4 lysate, 1 h continuous treatment, 25° C.

On to `COc1ccc(C[C@H](NC(=O)[C@H](C)NC(=O)CN2CCOCC2)C(=O)N[C@@H](CC2=CCOCC2)C(=O)[C@@]2(C)CO2)cc1` [Compound C-1020, (S)-N-((S)-3-(3,6-dihydro-2H-pyran-4-yl)-1-((R)-2-methyloxiran-2-yl)-1-oxopropan-2-yl)-3-(4-methoxyphenyl)-2-((S)-2-(2-morpholinoacetamido)propanamido)propanamide], for which, in “Solubility pH 7”, the concentration in solution (solubility) was 6440 µg/mL (≈ 11 mM). Moreover, the IC50 – broadly, the concentration that inhibits the measured activity by half – in series [1] (setting [3]) was 45000 nM; in series [2] (setting [4]), 1160 nM.
On to `COc1ccc(C[C@H](NC(=O)[C@H](C)NC(=O)CN2CCOCC2)C(=O)N[C@@H](CC2=CCCC2)C(=O)[C@H]2CO2)cc1` [Compound C-1038, (S)-N-((S)-3-(cyclopent-1-en-1-yl)-1-((R)-oxiran-2-yl)-1-oxopropan-2-yl)-3-(4-methoxyphenyl)-2-((S)-2-(2-morpholinoacetamido)propanamido)propanamide], for which the solubility (usually the dissolved amount per volume that the medium holds) in the series “Solubility pH 7” came to 230 µg/mL (≈ 0.414 mM). The IC50 amounted to 289 nM in series [1] (setting [3]) and 9.07 nM in series [2] (setting [4]).
The matching figures for `C[C@H](NC(=O)CN1CCOCC1)C(=O)N[C@@H](Cc1ccc2c(c1)OCO2)C(=O)N[C@@H](CC1CCCC1)C(=O)[C@H]1CO1` [Compound C-1060, (S)-3-(benzo[d][1,3]dioxol-5-yl)-N-((S)-3-cyclopentyl-1-((R)-oxiran-2-yl)-1-oxopropan-2-yl)-2-((S)-2-(2-morpholinoacetamido)propanamido)propanamide]: 1380 µg/mL (≈ 2.4 mM), 423 nM and 12.4 nM.
Turning to `COc1ccc(C[C@H](NC(=O)[C@@H](C)NC(=O)[C@H]2CC[C@H](O)CC2)C(=O)N[C@@H](CC2=CCCC2)C(=O)[C@@]2(C)CO2)cc1O` [Compound C-1065, (1r,4R)-N-((R)-1-(((S)-1-(((S)-3-(cyclopent-1-en-1-yl)-1-((R)-2-methyloxiran-2-yl)-1-oxopropan-2-yl)amino)-3-(3-hydroxy-4-methoxyphenyl)-1-oxopropan-2-yl)amino)-1-oxopropan-2-yl)-4-hydroxycyclohexanecarboxamide], the concentration in solution in “Solubility pH 7” (solubility) was 2660 µg/mL (≈ 4.55 mM). For the same molecule, the IC50 was 1480 nM in series [1] (setting [3]) and 34.6 nM in series [2] (setting [4]).
Turning to `COc1ccc(C[C@H](NC(=O)[C@H](C)NC(=O)CN2CCOCC2)C(=O)N[C@@H](CC2CC=CC2)C(=O)[C@@]2(C)CO2)cc1` [Compound C-1066, (S)-N-((S)-3-(cyclopent-3-en-1-yl)-1-((R)-2-methyloxiran-2-yl)-1-oxopropan-2-yl)-3-(4-methoxyphenyl)-2-((S)-2-(2-morpholinoacetamido)propanamido)propanamide], the solubility in the series “Solubility pH 7” is 3200 µg/mL (≈ 5.6 mM). Besides, the IC50 was determined as 335 nM in series [1] (setting [3]) and 47.1 nM in series [2] (setting [4]).
`C[C@H](NC(=O)CN1CCOCC1)C(=O)N[C@@H](Cc1ccc2[nH]ncc2c1)C(=O)N[C@@H](CC1CCCC1)C(=O)[C@@]1(C)CO1` [Compound C-1070, (S)-N-((S)-3-cyclopentyl-1-((R)-2-methyloxiran-2-yl)-1-oxopropan-2-yl)-3-(1H-indazol-5-yl)-2-((S)-2-(2-morpholinoacetamido)propanamido)propanamide] gave a solubility in the series “Solubility pH 7” of 2140 µg/mL (≈ 3.67 mM). In addition, the IC50 in series [1] (setting [3]) was determined as 1810 nM; in series [2] (setting [4]) it was 209 nM.
For `COc1ccc(C[C@H](NC(=O)[C@H](C)NC(=O)CN2CCOCC2)C(=O)N[C@@H](CC2CCCC2)C(=O)[C@H]2CO2)cc1OC` [Compound C-1071, (S)-N-((S)-3-cyclopentyl-1-((R)-oxiran-2-yl)-1-oxopropan-2-yl)-3-(3,4-dimethoxyphenyl)-2-((S)-2-(2-morpholinoacetamido)propanamido)propanamide] the same measures were 4300 µg/mL (≈ 7.3 mM), 3890 nM and 106 nM.
As for `COc1ccc(C[C@H](NC(=O)[C@@H](C)NC(=O)[C@H]2CC[C@H](O)CC2)C(=O)N[C@@H](CC2CCCC2)C(=O)[C@@]2(C)CO2)cc1O` [Compound C-1072, (1r,4R)-N-((R)-1-(((S)-1-(((S)-3-cyclopentyl-1-((R)-2-methyloxiran-2-yl)-1-oxopropan-2-yl)amino)-3-(3-hydroxy-4-methoxyphenyl)-1-oxopropan-2-yl)amino)-1-oxopropan-2-yl)-4-hydroxycyclohexanecarboxamide], in “Solubility pH 7” (pH 7), the “Solubility pH 7 (μg/mL)” value stood at 4742.65 μg/mL. Also, the IC50 in series [1] (read-out: ProCISE beta5 MOLT4 lysate Hu 1 h CONT: IC50, MOLT4 lysate, human, 1 h continuous treatment, 25° C.) came out at 3390 nM; in series [2] (read-out: ProCISE LMP7 MOLT4 lysate Hu 1 h CONT: IC50, 1 h continuous treatment, 25° C.), 39.7 nM.
In the series “Solubility pH 7”, `COc1ccc(C[C@H](NC(=O)[C@@H](C)NC(=O)[C@H]2CC[C@H](O)CC2)C(=O)N[C@@H](CC2CC=CC2)C(=O)[C@@]2(C)CO2)cc1` [Compound C-1074, (1r,4R)-N-((R)-1-(((S)-1-(((S)-3-(cyclopent-3-en-1-yl)-1-((R)-2-methyloxiran-2-yl)-1-oxopropan-2-yl)amino)-3-(4-methoxyphenyl)-1-oxopropan-2-yl)amino)-1-oxopropan-2-yl)-4-hydroxycyclohexanecarboxamide] returned a solubility of 1150 µg/mL (≈ 2.02 mM). The IC50 in series [1] was found to be 778 nM; in series [2] (setting [4]), 26.2 nM.
In turn, `COc1ccc(C[C@H](NC(=O)[C@@H](C)NC(=O)[C@H]2CC[C@@H](O)C2)C(=O)N[C@@H](CC2CCCC2)C(=O)[C@@]2(C)CO2)cc1` [Compound C-1075, (1S,3R)-N-((R)-1-(((S)-1-(((S)-3-cyclopentyl-1-((R)-2-methyloxiran-2-yl)-1-oxopropan-2-yl)amino)-3-(4-methoxyphenyl)-1-oxopropan-2-yl)amino)-1-oxopropan-2-yl)-3-hydroxycyclopentanecarboxamide] showed a solubility in “Solubility pH 7” of 1650 µg/mL (≈ 2.95 mM). Also, the IC50 turned out to be 788 nM in series [1] (setting [3]) and 92.1 nM in series [2] (setting [4]).
For `COc1ccc([C@@H](O)[C@H](NC(=O)[C@@H](C)NC(=O)[C@H]2CC[C@H](O)CC2)C(=O)N[C@@H](CC2CCCC2)C(=O)[C@@]2(C)CO2)cc1` [Compound C-1079, (1r,4R)-N-((R)-1-(((2S,3R)-1-(((S)-3-cyclopentyl-1-((R)-2-methyloxiran-2-yl)-1-oxopropan-2-yl)amino)-3-hydroxy-3-(4-methoxyphenyl)-1-oxopropan-2-yl)amino)-1-oxopropan-2-yl)-4-hydroxycyclohexanecarboxamide] the same measures were 2050 µg/mL (≈ 3.49 mM), 2230 nM and 34.6 nM.
For `COc1ccc([C@@H](O)[C@H](NC(=O)[C@H](C)NC(=O)CN2CCOCC2)C(=O)N[C@@H](CC2=CCCCC2)C(=O)[C@@]2(C)CO2)cc1` [Compound C-1082, (2S,3R)-N-((S)-3-(cyclohex-1-en-1-yl)-1-((R)-2-methyloxiran-2-yl)-1-oxopropan-2-yl)-3-hydroxy-3-(4-methoxyphenyl)-2-((S)-2-(2-morpholinoacetamido)propanamido)propanamide] the same measures were 6130 µg/mL (≈ 10.2 mM), 3530 nM and 86.6 nM.
Consider `COc1ccc([C@@H](O)[C@H](NC(=O)[C@H](C)NC(=O)CN2CCOCC2)C(=O)N[C@@H](CC2=CCCC2)C(=O)[C@@]2(C)CO2)cc1` [Compound C-1083, (2S,3R)-N-((S)-3-(cyclopent-1-en-1-yl)-1-((R)-2-methyloxiran-2-yl)-1-oxopropan-2-yl)-3-hydroxy-3-(4-methoxyphenyl)-2-((S)-2-(2-morpholinoacetamido)propanamido)propanamide], for which the solubility in “Solubility pH 7” was found to be 7070 µg/mL (≈ 12.1 mM). Besides, the results for the IC50 in series [1] (setting [3]) and in series [2] (setting [4]) were 561 nM and 40.3 nM, respectively.
